Here are results for eight compounds from patent US8889876B2, “Histone deacetylase inhibitors and uses thereof” (Jiangsu Hengyi Pharmaceutical Co., Ltd., priority 2008, dated 2014).

Test [1] deals with Hut78 T-cell Leukemia cell. In words: CCK-8 proliferation inhibition, Hut78. As to conditions: for inhibition at 10 µM / inhibition at 100 µM: Homo sapiens, read-out: Hut-78 (inhibition %); for inhibition at 10 µM: HuT78, 10 μM; for inhibition at 100 µM: HuT78, 100 μM. Format: cell-based. As for the experimental part: (§1) Detecting the inhibition rate of the compound concentrations of 100 μM and 10 μM to Hut78 T-cell Leukemia cell, Jurkat E6-1 human T-cell lymphoma, PANC-1 human pancreatic cancer cells, A549 human lung cancer cells, K562 human chronic myeloid leukemia cells, Hep3B2.1-7 human liver cancer cells, MDA-MB-435s human breast cancer cells, Colo320 human rectal cancer cells and PC-3 human prostate cancer using CCK-8 method.

Test [2] deals with A549 human lung cancer cells. In words: CCK-8 proliferation inhibition, A549. Format: cell-based. Particulars: CCK-8 method; for inhibition at 10 µM / inhibition at 100 µM: Homo sapiens, A549. The protocol:
as §1
(In general: Formazan colour is commonly taken as a measure of viable cells.)

In test [3] the test system is PANC-1 human pancreatic cancer cells. The experiment in a line: CCK-8 proliferation inhibition, PANC-1. Format: cell-based. Particulars: for inhibition at 10 µM / inhibition at 100 µM: Homo sapiens; for inhibition at 10 µM: PANC-1, 10 μM; for inhibition at 100 µM: PANC-1, 100 μM. As for the experimental part:
as §1

For a further test, the system named is histone deacetylase. In words: in vitro inhibition of histone deacetylase by HDAC inhibitor screening kit (Biovision K340-100). In kind it is biochemical. The protocol:
An assay for determining the in vitro inhibition activity of the compound on histone deacetylase is conducted according to the specification of HDAC inhibitor screeing kid (Biovision Company/Catalog #K340-100). […]

Test [4] relates to PC-3 human prostate cancer. The experiment in a line: CCK-8 proliferation inhibition, PC-3. In kind it is cell-based. As to conditions: CCK-8 method; for inhibition at 10 µM / inhibition at 100 µM: Homo sapiens. The protocol:
as §1

Test [5] deals with K562 human chronic myeloid leukemia cells. In words: CCK-8 proliferation inhibition, K562. Particulars: for inhibition at 10 µM / inhibition at 100 µM: Homo sapiens; for inhibition at 10 µM: K562, 10 μM; for inhibition at 100 µM: K562, 100 μM. In kind it is cell-based. As for the experimental part:
as §1

The test system of test [6] is Jurkat E6-1 human T-cell lymphoma. The experiment in a line: CCK-8 proliferation inhibition, Jurkat E6-1. As to conditions: for inhibition at 10 µM / inhibition at 100 µM: Homo sapiens; for inhibition at 10 µM: Jurkat E6.1, 10 μM; for inhibition at 100 µM: Jurkat E6.1, 100 μM. Format: cell-based. The protocol: as §1
Test [7] has as its system Colo320 human rectal cancer cells. In words: CCK-8 proliferation inhibition, Colo320. As to conditions: CCK-8 method; for inhibition at 10 µM / inhibition at 100 µM: Homo sapiens, COLO 320. In kind it is cell-based. The protocol: as §1
The test system of test [8] is Hep3B2.1-7 human liver cancer cells. The experiment in a line: CCK-8 proliferation inhibition, Hep3B2.1-7. In kind it is cell-based. As to conditions: CCK-8 method; for inhibition at 10 µM / inhibition at 100 µM: Homo sapiens, Hep3B. The protocol: as §1
In test [9] the test system is MDA-MB-435s human breast cancer cells. In words: CCK-8 proliferation inhibition, MDA-MB-435s. Format: cell-based. As to conditions: CCK-8 method; for inhibition at 10 µM / inhibition at 100 µM: Homo sapiens, MDA-MB-435S. The protocol: as §1

Take `Nc1cnccc1NC(=O)c1ccc(CNC(=O)OCc2ccccc2)cc1` [V-7]: the inhibition at 10 µM in test [1] is 18.2%; in [2] (compound concentration 10 μM), -7.8%; in [3], 5.7%; in test [4] (compound concentration 10 μM) it was 0.6%; in [5], 51%; in test [6], 27.1%. For the same compound, the inhibition at 10 µM in test [7] (compound concentration 10 μM) was -7.1%; in [8] (compound concentration 10 μM) it was -12.3%; in test [9] (compound concentration 10 μM) it was 4.5%. The inhibition at 100 µM in test [1] amounted to 72.9%; in test [2] (compound concentration 100 μM) it was 72.3%; in [3], 5.5%; in test [4] (compound concentration 100 μM), 36.9%; in [5], 85.1%; in [6], 96%. Moreover, the values for the inhibition at 100 µM in test [7] (compound concentration 100 μM), in test [8] (compound concentration 100 μM) and in test [9] (compound concentration 100 μM) were 47.2%, 59.2% and 85.5%, respectively. For the same compound, the figures for the “Inhibition rate(%)” value with histone deacetylase (3.91 μM), in the test on histone deacetylase (62.5 μM) and in the test on histone deacetylase (2 mM) were 9.5%, 36.0% and 78.2%, respectively.
Turning to `Nc1ncccc1NC(=O)c1ccc(CNC(=O)OCc2ccccc2)cc1` [V-8, N-(2-amino-3-pyridyl)-4-(benzyloxyacylaminomethyl)benzamide], the inhibition at 10 µM in test [1] is 6.4%; in [2] (compound concentration 10 μM) it was -43.9%; in [3] it was 14.4%; in [4] (compound concentration 10 μM), 5.2%; in [5] it was -1.3%; in test [6] it was 5.4%. Moreover, the inhibition at 10 µM was 7.1% in [7] (compound concentration 10 μM), -10.2% in test [8] (compound concentration 10 μM) and -20.7% in test [9] (compound concentration 10 μM). For the same compound, the inhibition at 100 µM was 15.8% in [1]; -19.4% in test [2] (compound concentration 100 μM); 11.9% in test [3]; 15.9% in test [4] (compound concentration 100 μM); 38.1% in test [5]; 23.7% in [6]. Also, the inhibition at 100 µM is 16.8% in test [7] (compound concentration 100 μM), -12.1% in test [8] (compound concentration 100 μM) and -10.4% in [9] (compound concentration 100 μM). The “Inhibition rate(%)” value turned out to be 6.3% in the test with histone deacetylase (3.91 μM), 10.3% in the test with histone deacetylase (62.5 μM) and 35.3% in the test with histone deacetylase (2 mM).
In the case of `Cc1ccc(COC(=O)NCc2ccc(C(=O)Nc3cccnc3N)cc2)cc1` [V-9, N-(2-amino-3-pyridyl)-4-[(4-methylbenzyloxyacyl)aminomethyl]benzamide], the inhibition at 10 µM in test [1] is 15%; in [2] (compound concentration 10 μM), -44.3%; in test [3], 10.5%; in [4] (compound concentration 10 μM), 0%; in test [5], 49.4%; in [6] it was 62.2%. The values for the inhibition at 10 µM in [7] (compound concentration 10 μM), in test [8] (compound concentration 10 μM) and in test [9] (compound concentration 10 μM) were 13%, 7.3% and -14.3%, respectively. For the same compound, the inhibition at 100 µM in test [1] was 43.9%; in [2] (compound concentration 100 μM) it was -13.1%; in [3] it was 45.9%; in test [4] (compound concentration 100 μM), 66.7%; in [5] it was 83.2%; in test [6], 87.9%. Besides, the inhibition at 100 µM was 45.3% in test [7] (compound concentration 100 μM), 66.6% in [8] (compound concentration 100 μM) and 84.1% in [9] (compound concentration 100 μM). The figures for the “Inhibition rate(%)” value with histone deacetylase (3.91 μM), with histone deacetylase (62.5 μM) and in the test on histone deacetylase (2 mM) were 2.8%, 16.8% and 36.7%, respectively.
With `COc1cc(COC(=O)NCc2ccc(C(=O)Nc3cccnc3N)cc2)cc(OC)c1OC` [V-13, N-(2-amino-3-pyridyl)-4-[(3,4,5-trimethoxybenzyloxyacyl)aminomethyl]benzamide], the inhibition at 10 µM in test [1] was 10.8%; in test [2] (compound concentration 10 μM), 24.6%; in test [3] it was 22.3%; in test [4] (compound concentration 10 μM) it was 5.1%; in [5], -2.8%; in test [6] it was 0.9%. The inhibition at 10 µM was 4.4% in test [7] (compound concentration 10 μM), 27% in test [8] (compound concentration 10 μM) and -11.9% in test [9] (compound concentration 10 μM). The inhibition at 100 µM in [1] was determined as 24%; in test [2] (compound concentration 100 μM), 42.3%; in test [3], 26.4%; in [4] (compound concentration 100 μM), 19.3%; in test [5], 30.3%; in [6], 22.8%. Moreover, the inhibition at 100 µM in test [7] (compound concentration 100 μM) was 4.2%; in test [8] (compound concentration 100 μM), 26.2%; in [9] (compound concentration 100 μM), 11.8%. Also, the figures for the “Inhibition rate(%)” value with histone deacetylase (3.91 μM), in the test with histone deacetylase (62.5 μM) and in the test on histone deacetylase (2 mM) were 1.9%, 7.8% and 50.0%, respectively.
Take `COc1cc(COC(=O)NCc2ccc(C(=O)Nc3ccncc3N)cc2)cc(OC)c1OC` [V-14]: the inhibition at 10 µM in [1] was 8.1%; in [2] (compound concentration 10 μM), -4.4%; in test [3], 13%; in [4] (compound concentration 10 μM), 13.7%; in test [5] it was 45%; in [6] it was 25.3%. The inhibition at 10 µM in [7] (compound concentration 10 μM) was 6.4%; in [8] (compound concentration 10 μM), 3.7%; in [9] (compound concentration 10 μM) it was 9.4%. Besides, the inhibition at 100 µM in [1] worked out at 47.5%; in test [2] (compound concentration 100 μM), 40.1%; in test [3] it was 19%; in test [4] (compound concentration 100 μM), 57.4%; in test [5], 62.1%; in [6], 72.8%. In addition, the inhibition at 100 µM stood at 23.3% in test [7] (compound concentration 100 μM), 31.3% in test [8] (compound concentration 100 μM) and 82.9% in [9] (compound concentration 100 μM). Besides, the figures for the “Inhibition rate(%)” value with histone deacetylase (3.91 μM), with histone deacetylase (62.5 μM) and in the test with histone deacetylase (2 mM) were 12.0%, 32.9% and 77.2%, respectively.
As for `Nc1ncccc1NC(=O)c1ccc(CNC(=O)CCc2ccc(F)cc2)cc1` [V-60, N-(2-amino-3-pyridyl)-4-[3-(4-fluorophenyl)propionylaminomethyl]benzamide], the inhibition at 10 µM stood at 11.8% in test [1]; 3.7% in [2] (compound concentration 10 μM); 27.3% in test [3]; 1% in test [4] (compound concentration 10 μM); 14.6% in test [5]; 11% in test [6]. Besides, the inhibition at 10 µM in [7] (compound concentration 10 μM) is -5.4%; in test [8] (compound concentration 10 μM) it was 9.9%; in [9] (compound concentration 10 μM), -7.8%. Also, the inhibition at 100 µM came to 28.5% in test [1]; 12.2% in test [2] (compound concentration 100 μM); 26.1% in test [3]; 8.1% in [4] (compound concentration 100 μM); 42.7% in test [5]; 33.3% in [6]. Besides, the inhibition at 100 µM in test [7] (compound concentration 100 μM) was 2.3%; in test [8] (compound concentration 100 μM) it was 31.7%; in test [9] (compound concentration 100 μM), -3.4%.
`COc1ccc(/C=C/C(=O)NCc2ccc(C(=O)Nc3ccncc3N)cc2)cc1OC` [V-94]: the inhibition at 10 µM in test [1] came out at 12.9%; in test [2] (compound concentration 10 μM), 9.1%; in test [3] it was 6%; in [4] (compound concentration 10 μM), 54.2%; in test [5], 35%; in test [6] it was 65.6%. The inhibition at 10 µM in [7] (compound concentration 10 μM) is -6.4%; in [8] (compound concentration 10 μM) it was 4.5%; in test [9] (compound concentration 10 μM), 15.1%. The inhibition at 100 µM in test [1] turned out to be 66.7%; in test [2] (compound concentration 100 μM), 58.4%; in [3], 27.3%; in [4] (compound concentration 100 μM), 87.8%; in test [5], 85.7%; in test [6] it was 95.6%. Besides, the results for the inhibition at 100 µM in test [7] (compound concentration 100 μM), in test [8] (compound concentration 100 μM) and in test [9] (compound concentration 100 μM) were 17.8%, 69.4% and 77%, respectively.
For the compound “N-(2-amino-3-pyridyl)-4-[(2-naphthylmethoxyacyl)aminomethyl)benzamide [V-23]”, the “Hut-78 (inhibition %)” value in test [1] (10 μM) was determined as 20.7%; in test [1] (100 μM) it was 10.4%. In addition, the “A549 (inhibition %)” value in test [2] (compound concentration 10 μM) is 4.7%; in test [2] (compound concentration 100 μM), 3.5%. Also, the figures for the “PANC-1 (inhibition %)” value in test [3] (10 μM) and in test [3] (100 μM) were 7.2% and 0.5%, respectively. Moreover, the results for the “PC-3 (inhibition %)” value in test [4] (compound concentration 10 μM) and in [4] (compound concentration 100 μM) were 10.9% and 8.6%, respectively. Besides, the “K562 (inhibition %)” value amounted to 27.2% in test [5] (10 μM) and 11.9% in test [5] (100 μM). Besides, the results for the “Jurkat E6-1 (inhibition %)” value in test [6] (10 μM) and in [6] (100 μM) were 33.7% and 13.9%, respectively. The “Colo320 (inhibition %)” value in [7] (compound concentration 10 μM) worked out at 15.3%; in test [7] (compound concentration 100 μM), 3.9%. For the same compound, the entries for the “Hep3B (inhibition %)” value in test [8] (compound concentration 10 μM) and in [8] (compound concentration 100 μM) were 16.3% and 11.2%, respectively. In addition, the “435s(inhibition %)” value is listed as 21.6% in test [9] (compound concentration 10 μM) and 21.0% in test [9] (compound concentration 100 μM).

Usually inhibition stands for the relative decrease from the control value, in per cent.
